Experimental data from patent US7060821B2, “Osteoclast differentiation inhibitors” (Mercian Corporation, priority 2002, dated 2006).
Values after ≈ are worked out from the molar mass of the structure shown.

Assays:
L1210 (leukemia) = assay: Growth inhibition (MTT) of L1210 cells; type: cell-based, murine; conditions: Mus musculus, 48 hours, read-out: 50% growth inhibition concentration
Experimental: (§1) Note that the tests were performed as follows. Various kinds of murine cancer cells (L1210 (leukemia)), Colon 26 (colon cancer), B16BL6 (malignant melanoma)) were suspended in RPMI1640 medium containing 10% fetal calf serum and adjusted to 2×10^4 cells/well and 0.1 ml of each of the suspensions was seeded on a 96-well plate. At the same time, a predetermined amount of the substance F-1490 was added and the resultants were cultivated at 37° C. for 48 hours in the air containing 5% CO2. Further, 10 μl of 0.5% MTT (3-[4,5-dimethylthiazol-2-yl] […] tetrazolium bromide) was added and the resultants were cultivated for 4 hours. After the cultivation, 0.1 ml of 10% SDS-0.01N hydrochloric acid was added and absorbance at 570 nm was measured to determine 50% growth inhibition concentration.

Colon 26 (colon cancer) = assay: Growth inhibition (MTT) of Colon 26 cells; type: cell-based, murine; conditions: Mus musculus, Colon26 cells, 48 hours, read-out: 50% growth inhibition concentration
Experimental: as §1

[1] = test system: bone marrow cells (differentiation into osteoclasts); assay: Osteoclast differentiation inhibition: count of tartaric acid-resistant acid phosphatase-positive cells; type: cell-based, C57BL/6 mouse
Experimental: Bone marrow cells were collected from a C57BL/6mouse (female, 6 weeks old) and suspended in RPMI1460 medium that contains 10% fetal calf serum, 1 mM pyruvic acid, 0.1 mM non-essential amino acids (manufactured by Gibco), 500 μM 2-mercaptoethanol, 200 ng/ml parathyroid hormone related protein (PTHrP) and 50 μg/ml L-ascorbic acid and 1 ml of the suspension adjusted to a cell population of 1.5×10^6 cells/well was inoculated on a 24-well microplate. At the same time a test sample was added in appropriate amounts. On days 2 and 4 from the start of the cultivation, half the amount of the medium is exchanged with fresh medium containing the test sample. On day 7 from the start of the cultivation, the medium is removed by suction and the cells are fixed with an acetone:methanol (1:1) solution, to thereby allow tartaric acid-resistant acid phosphatase-positive cells stained. That is, 0.4 ml of a 0.2-M acetate buffer (pH 5.2) containing a staining fluid (0.1 mg/ml Naphthol AS-MX phosphate (Sigma AB), 0.6 mg/ml Fast red violet LB sal (Sigma AB) and 20 mM tartaric acid is added to each well and the resultants are allowed to react at 37° C. for 1 hour. After color development, the number of tartaric acid-resistant acid phosphatase-positive cells, which is an index of differentiation into osteoclasts, is measured under a microscope.
When the test sample contains a substance that is effective for inhibition of osteoclast differentiation, the occurrence of tartaric acid-resistant acid phosphatase-positive cells is inhibited. From changes in the above-mentioned number of cells depending on the concentration of the test sample, an effective concentration range of the test sample can be obtained.

[2] = test system: B16BL6 (malignant melanoma); assay: Growth inhibition (MTT) of B16BL6 cells; type: cell-based, murine; conditions: Mus musculus, B16-BL6, 48 hours, read-out: 50% growth inhibition concentration
Experimental: as §1

IC50 (L1210 (leukemia)): > 50 µg/mL
IC50 (Colon 26 (colon cancer)): > 50 µg/mL
IC50 [2]: > 50 µg/mL
Structure (SMILES): O=C(O)c1cccc2c1NC1CCCCC1(O)O2 (centres unmarked) [Substance F-1490-A]
IC50 ([1]; Mus musculus, Table 1, osteoclast differentiation test, read-out: 50% growth inhibition concentration): 0.65 µg/mL (≈ 2.61 µM)
inhibition at 0.2 µg/mL ([1]; Osteoclast, 168 h, concentration 0.20 μg/ml, day 7, PTHrP-stimulated mouse bone marrow cells, read-out: Inhibition rate of differentiation into osteoclasts (%)): 2%
inhibition at 0.78 µg/mL ([1]; Osteoclast, 168 h, concentration 0.78 μg/ml, day 7, PTHrP-stimulated mouse bone marrow cells, read-out: Inhibition rate of differentiation into osteoclasts (%)): 63%
inhibition at 3.1 µg/mL ([1]; Osteoclast, 168 h, concentration 3.10 μg/ml, day 7, PTHrP-stimulated mouse bone marrow cells, read-out: Inhibition rate of differentiation into osteoclasts (%)): 74%
inhibition at 12.5 µg/mL ([1]; Osteoclast, 168 h, concentration 12.50 μg/ml, day 7, PTHrP-stimulated mouse bone marrow cells, read-out: Inhibition rate of differentiation into osteoclasts (%)): 87%
